Where “and” joins values, the source holds several entries; their conditions need not be identical. Identical values can stand only once. Like-named read-outs stand apart in the source and are kept apart here.
Key:
[1] = tested on: cryopreserved human hepatocytes; experiment: Contribution of metabolic enzymes in cryopreserved human hepatocytes (MIH0888); format: in vitro ADME; settings: 1 µM fedratinib
[2] = healthy subjects, cited from earlier work; for AUC (AUCinf) / Cmax: observation, ref Study TDU12620/INT12894
[3] = cited from earlier work
OCT2 = biological target: T1, OCT2 (Homo sapiens, UniProt O15244); experiment: OCT2 inhibition, CHO-hOCT2 cells (TRI0013); format: in vitro ADME; design: expressed in transfected cells; host or cells: CHO^Fi-hOCT2
T1 sequence (O15244 1-555): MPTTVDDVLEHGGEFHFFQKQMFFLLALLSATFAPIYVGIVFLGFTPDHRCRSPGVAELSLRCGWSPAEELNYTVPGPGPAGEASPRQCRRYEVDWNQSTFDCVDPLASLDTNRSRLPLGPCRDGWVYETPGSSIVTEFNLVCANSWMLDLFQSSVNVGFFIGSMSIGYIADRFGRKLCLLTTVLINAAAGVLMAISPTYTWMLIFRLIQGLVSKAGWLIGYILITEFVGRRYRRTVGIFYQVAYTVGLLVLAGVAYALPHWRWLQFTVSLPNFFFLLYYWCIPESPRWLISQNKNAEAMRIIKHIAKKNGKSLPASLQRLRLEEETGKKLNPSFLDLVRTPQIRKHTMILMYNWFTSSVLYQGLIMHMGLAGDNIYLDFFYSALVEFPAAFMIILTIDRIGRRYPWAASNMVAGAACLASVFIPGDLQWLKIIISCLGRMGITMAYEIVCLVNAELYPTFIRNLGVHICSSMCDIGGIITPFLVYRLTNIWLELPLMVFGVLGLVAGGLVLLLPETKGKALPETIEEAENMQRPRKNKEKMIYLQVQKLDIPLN
Excerpt: (§1) The reported IC50 values were converted to Ki values using the Cheng-Prusoff equation [10]:
(§2) The transporter inhibition parameters (Ki) for fedratinib were derived from the experimentally determined IC50 values using the Cheng-Prusoff equation, i.e., Ki = IC50/(1+[S]/Km) with the substrate concentrations ([S]) reported in the experimental studies and the substrate Km values collected from literature, as summarized in Table 13.

BCRP = biological target: T2, BCRP (Homo sapiens, UniProt Q9UNQ0); experiment: BCRP inhibition, vesicle-based (TRI0013); format: in vitro ADME
T2 sequence (Q9UNQ0 1-655): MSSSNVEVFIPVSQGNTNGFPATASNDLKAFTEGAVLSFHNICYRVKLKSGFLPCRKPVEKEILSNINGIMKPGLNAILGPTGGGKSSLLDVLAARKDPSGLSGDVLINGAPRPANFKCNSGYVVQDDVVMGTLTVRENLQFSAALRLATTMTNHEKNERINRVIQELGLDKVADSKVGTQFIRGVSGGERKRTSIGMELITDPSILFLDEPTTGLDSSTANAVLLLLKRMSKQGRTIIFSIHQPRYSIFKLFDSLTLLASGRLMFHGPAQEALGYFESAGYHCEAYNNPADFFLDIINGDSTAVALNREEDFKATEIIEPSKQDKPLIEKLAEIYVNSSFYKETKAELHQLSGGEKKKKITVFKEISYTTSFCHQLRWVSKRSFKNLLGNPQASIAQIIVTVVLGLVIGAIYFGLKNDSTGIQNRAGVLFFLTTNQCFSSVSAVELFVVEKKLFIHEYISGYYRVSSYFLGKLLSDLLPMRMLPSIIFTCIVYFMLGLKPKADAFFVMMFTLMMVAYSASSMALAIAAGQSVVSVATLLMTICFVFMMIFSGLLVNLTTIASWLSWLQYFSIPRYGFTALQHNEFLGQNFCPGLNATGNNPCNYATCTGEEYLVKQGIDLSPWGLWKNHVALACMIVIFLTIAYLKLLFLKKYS
Excerpt: as §1, §2

OCT1 = biological target: T3, OCT1 (Homo sapiens, UniProt O15245); experiment: OCT1 inhibition, CHO-hOCT1 cells (TRI0013); format: in vitro ADME
T3 construct: expressed in transfected cells; host or cells: CHO^Fi-hOCT1
T3 sequence (O15245 1-554): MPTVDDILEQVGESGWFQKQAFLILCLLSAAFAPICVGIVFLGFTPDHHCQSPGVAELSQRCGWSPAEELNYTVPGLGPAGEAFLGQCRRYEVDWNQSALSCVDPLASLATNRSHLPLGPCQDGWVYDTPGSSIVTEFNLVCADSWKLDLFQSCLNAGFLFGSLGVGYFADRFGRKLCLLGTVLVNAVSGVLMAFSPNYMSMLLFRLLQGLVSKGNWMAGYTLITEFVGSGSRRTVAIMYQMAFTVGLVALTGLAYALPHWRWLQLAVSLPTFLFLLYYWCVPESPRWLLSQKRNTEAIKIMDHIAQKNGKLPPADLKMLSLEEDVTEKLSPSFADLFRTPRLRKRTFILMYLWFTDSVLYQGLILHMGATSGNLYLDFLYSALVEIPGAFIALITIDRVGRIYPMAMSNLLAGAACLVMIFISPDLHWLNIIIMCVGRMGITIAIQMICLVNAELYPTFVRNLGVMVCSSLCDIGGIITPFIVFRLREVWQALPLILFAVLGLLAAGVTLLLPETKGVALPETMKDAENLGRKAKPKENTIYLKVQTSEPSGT
Excerpt: as §1, §2

[4] = 300 mg QD, MF patients, Day 1, observation, GM
[5] = 300 mg QD, MF patients, Day 1, observation, Mean (SD)
[6] = 300 mg QD, MF patients, steady state, observation, GM
[7] = 300 mg QD, MF patients, steady state, observation, Mean (SD)
[8] = 400 mg QD, MF patients, Day 1, observation, GM
[9] = 400 mg QD, MF patients, Day 1, observation, Mean (SD)
[10] = 400 mg QD, MF patients, steady state, observation, GM
[11] = 400 mg QD, MF patients, steady state, observation, Mean (SD)
[12] = 500 mg QD, MF patients, Day 1, observation, GM
[13] = 500 mg QD, MF patients, Day 1, observation, Mean (SD)
[14] = 500 mg QD, MF patients, steady state, observation, GM
[15] = 500 mg QD, MF patients, steady state, observation, Mean (SD)
[16] = clinical observation in MF patients

hepatic metabolic clearance percentage, CYP2C19 [1]: 17% and ~ 17%
hepatic metabolic clearance percentage, CYP2D6 [1]: 2% and ~ 2%
hepatic metabolic clearance percentage, CYP3A [1]: 63% and ~ 63%
metabolic contribution to hepatic clearance, other liver enzymes [1]: ~ 18%
Ki (OCT2; from IC50 by Cheng-Prusoff, probe metformin): 0.71 µM
IC50 (OCT2; probe metformin 25 μM): 0.78 µM
Ki (BCRP; from IC50 by Cheng-Prusoff, probe methotrexate): 27.8 µM
IC50 (BCRP; probe methotrexate 100 μM): 29.9 µM
Ki (OCT1; from IC50 by Cheng-Prusoff, probe TEA): 5.59 µM
IC50 (OCT1; probe TEA 25 μM): 6.06 µM
Structure (SMILES): Cc1cnc(Nc2ccc(OCCN3CCCC3)cc2)nc1Nc1cccc(S(=O)(=O)NC(C)(C)C)c1 [Fedratinib]
AUC (AUCinf) ([2]; 300 mg single dose, GM): 6530 ng·h/mL
Cmax ([2]; 300 mg single dose, GM): 497 ng/mL
AUC (AUCinf) ([2]; 300 mg single dose, Mean (SD)): 6730 (1990) ng/mL·h
Cmax ([2]; 300 mg single dose, Mean (SD)): 521 (189) ng/mL
AUC (AUCinf) ([2]; 500 mg single dose, GM): 13200 ng·h/mL
Cmax ([2]; 500 mg single dose, GM): 683 ng/mL
AUC (AUCinf) ([2]; 500 mg single dose, Mean (SD)): 13900 (5240) ng/mL·h
Cmax ([2]; 500 mg single dose, Mean (SD)): 720 (243) ng/mL
dose-normalized AUC ([2]; single doses above 100 mg, ref [3]): 30 ng·h/mL/mg
AUC (AUCτ) [3, 4]: 7020 ng·h/mL
Cmax [3, 4]: 1070 ng/mL
AUC (AUCτ) [3, 5]: 9460 (7770) ng/mL·h
Cmax [3, 5]: 1380 (1060) ng/mL
AUC (AUCτ) [3, 6]: 22400 ng·h/mL
Cmax [3, 6]: 1530 ng/mL
AUC (AUCτ) [3, 7]: 25300 (14100) ng/mL·h
Cmax [3, 7]: 1800 (1120) ng/mL
AUC (AUCτ) [3, 8]: 9130 ng·h/mL
Cmax [3, 8]: 1290 ng/mL
AUC (AUCτ) [3, 9]: 9610 (3450) ng/mL·h
Cmax [3, 9]: 1430 (754) ng/mL
AUC (AUCτ) [3, 10]: 26900 ng·h/mL
Cmax [3, 10]: 1800 ng/mL
AUC (AUCτ) [3, 11]: 29100 (13500) ng/mL·h
Cmax [3, 11]: 2020 (1250) ng/mL
AUC (AUCτ) [3, 12]: 9980 ng·h/mL
Cmax [3, 12]: 1270 ng/mL
AUC (AUCτ) [3, 13]: 11300 (6060) ng/mL·h
Cmax [3, 13]: 1420 (710) ng/mL
AUC (AUCτ) [3, 14]: 38700 ng·h/mL
Cmax [3, 14]: 2540 ng/mL
AUC (AUCτ) [3, 15]: 44500 (24900) ng/mL·h
Cmax [3, 15]: 2830 (1370) ng/mL
accumulation ratio, AUC ([3]; Study ARD11936 500 mg QD, MF patients, observed): 3.9
accumulation ratio, AUC [3, 16]: 2.9–3.2
accumulation ratio, Cmax [3, 16]: 1.4–2.0
